The source of these data is ChEMBL document CHEMBL5143521, “Identification of a selective BRD4 PROTAC with potent antiproliferative effects in AR-positive prostate cancer based on a dual BET/PLK1 inhibitor” (Eur J Med Chem, 2022).

Test [1] concerns LNCaP. As to the kind of experiment: Antiproliferative activity against AR-positive harmone sensitive human LNCaP cells assessed as reduction in cell viability at 100 to 300 nM incubated for 3 days followed by compound washout and measured after 8 days. It counts as functional. The following applies: dose 100-300 nM, time 3 day.
Test [2] deals with VCaP. As to the kind of experiment: Downregulation of c-Myc mRNA expression level in AR-positive human VCaP cells at 100 nM measured after 24 hrs by RT-qPCR analysis. It counts as functional, cell-based. For orientation: Quantitative PCR measures a nucleic acid by following its amplification.
The subject of test [3] is VCaP. As to the kind of experiment: Downregulation of c-Myc […] expression level in AR-positive human VCaP cells at 1 nM by Western blot analysis. The test is classed as functional, cell-based. The following applies: time 2-48 hrs, TDE = time-dependent effect. On the technique in general: A western blot detects proteins with antibodies after separation by electrophoresis.

In test [4] the test system is CWR22R. As to the kind of experiment: Downregulation of c-Myc […] expression level in AR-positive human 22Rv1 cells measured after 24 hrs by Western blot analysis. The test is classed as functional, cell-based. As to conditions: dose 1-10000 nM, DDE = dose-dependent effect.
In test [5] the target is Serine/threonine-protein kinase PLK1 (Homo sapiens, UniProt P53350). As to the kind of experiment: Inhibition of PLK1 in AR-positive human 22Rv1 cells at 100 nM measured after 3 hrs in presence of cycloheximide by Western blot analysis. The test is classed as cell-based.
Serine/threonine-protein kinase PLK1, sequence (P53350 whole entry): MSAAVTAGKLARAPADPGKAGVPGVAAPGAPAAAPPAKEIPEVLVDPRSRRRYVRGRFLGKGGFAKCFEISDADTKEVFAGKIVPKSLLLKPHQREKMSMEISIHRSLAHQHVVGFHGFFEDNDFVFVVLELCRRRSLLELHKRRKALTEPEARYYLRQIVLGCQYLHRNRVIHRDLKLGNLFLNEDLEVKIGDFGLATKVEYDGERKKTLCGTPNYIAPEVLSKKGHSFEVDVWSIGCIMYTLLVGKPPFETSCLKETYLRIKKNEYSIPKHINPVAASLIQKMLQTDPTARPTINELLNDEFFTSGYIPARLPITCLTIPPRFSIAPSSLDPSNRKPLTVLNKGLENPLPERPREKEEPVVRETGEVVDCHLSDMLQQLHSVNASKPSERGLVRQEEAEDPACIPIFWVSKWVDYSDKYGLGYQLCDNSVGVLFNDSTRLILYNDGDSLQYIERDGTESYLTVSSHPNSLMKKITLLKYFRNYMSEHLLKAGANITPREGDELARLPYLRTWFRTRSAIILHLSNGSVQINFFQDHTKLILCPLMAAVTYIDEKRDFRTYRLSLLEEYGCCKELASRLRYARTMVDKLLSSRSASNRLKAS
Test [6] has as its system CWR22R. As to the kind of experiment: Induction of apoptosis in AR-positive human 22Rv1 cells assessed as upregulation of cleaved caspase-3 level measured after 72 hrs by Annexin V-FITC/PI staining based flow cytometry method. The test is classed as functional, cell-based. The following applies: dose 100-1000 nM, DDE = dose-dependent effect.
In test [7] the test system is VCaP. As to the kind of experiment: Downregulation of TMPRSS2 gene expression in AR-positive human VCaP cells at 100 nM measured after 24 hrs by RT-qPCR analysis. The test is classed as functional, cell-based.
The subject of test [8] is CWR22R. Put plainly: Induction of cell cycle arrest in AR-positive human 22Rv1 cells assessed as downregulation of cyclin D1 expression at 100 to 1000 nM measured after 72 hrs by Western blot analysis. As to conditions: dose 100-1000 nM. The test is classed as functional, cell-based.
Test [9] has as its system CWR22R. As to the kind of experiment: Induction of cell cycle arrest in AR-positive human 22Rv1 cells assessed as downregulation of cyclin B1 expression at 100 to 1000 nM measured after 72 hrs by Western blot analysis. It counts as functional, cell-based. As to conditions: dose 100-1000 nM.
Test [10] deals with CWR22R. As to the kind of experiment: Downregulation of c-Myc […] expression level in AR-positive human 22Rv1 cells at 1 nM by Western blot analysis. As to conditions: time 2-48 hrs, TDE = time-dependent effect. It counts as functional, cell-based.
Test [11] has as its system VCaP. Put plainly: Inhibition of c-Myc expression level in human VCap cells at 10 nM incubated for 24 hrs by immunoblotting analysis. It counts as functional, cell-based.
For test [12], the system named is VCaP. Put plainly: Downregulation of PSA gene expression in AR-positive human VCaP cells at 100 nM measured after 24 hrs by RT-qPCR analysis. The test is classed as functional, cell-based.
In test [13] the test system is CWR22R. As to the kind of experiment: Induction of apoptosis in AR-positive human 22Rv1 cells assessed as increase in late apoptotic cells measured after 72 hrs by Annexin V-FITC/PI staining based flow cytometry method. The test is classed as functional, cell-based. As to conditions: dose 100-1000 nM, DDE = dose-dependent effect. For orientation: Flow cytometry measures light scatter and fluorescence of single cells or particles in a stream.

The source made the active and inactive calls. No cut-off for these calls is given here.

On to `CC[C@@H]1c2nnc(C)n2-c2cnc(Nc3ccc(C(=O)NC4CCN(C(=O)COc5cccc6c5C(=O)N(C5CCC(=O)NC5=O)C6=O)CC4)cc3OC)nc2N1CC1CCCCC1` (stereo partly drawn), for which the “inhibition (INH)” value in [1] stood at 100%. In addition, the outcome in test [2], in test [7], in test [8], in [9] and in test [12] was Active. Further, the Activity result in test [3] was “Tde”; in [4], “Dde”; in test [6] it was “Dde”; in test [10], “Tde”; in [13], “Dde”. In addition, the inhibition entry in test [5] and in [11] was “Active” in each case.
